# Test system: transgenic Arabidopsis thaliana T1 plants
# Assay: Detection of the herbicide tolerance of the transgenic Arabidopsis thaliana plants
# Assay type: in vivo
# Details: for The grade of pesticide damage/plant: 0 / The grade of pesticide damage/plant: 1 / The grade of pesticide damage/plant: 2 / The grade of pesticide damage/plant: 3: 7 DAT
# Source text: The transformed Arabidopsis thaliana T1 plants were initially selected using glufosinate herbicide. The Arabidopsis thaliana T1 plants (PPOA-01) into which the PPOA-01 nucleotide sequence was introduced, the Arabidopsis thaliana T1 plants (PPOB-01) into which the PPOB-01 nucleotide sequence was introduced, the Arabidopsis thaliana T1 plants (PPOC-01) into which the PPOC-01 nucleotide sequence was introduced, the Arabidopsis thaliana T1 plants (PPOD-01) into which the PPOD-01 nucleotide sequence was introduced, the Arabidopsis thaliana T1 plants (PPOE-01) into which the PPOE-01 nucleotide sequence was introduced, the Arabidopsis thaliana T1 plants (PPOF-01) into which the PPOF-01 nucleotide sequence was introduced, the Arabidopsis thaliana T1 plants (PPO-AP-01) into which the PPO-AP-01 nucleotide sequence was introduced, and the Arabidopsis thaliana T1 plants (control vector) into which the control vector was introduced, the wild-type Arabidopsis thaliana plants (CK) (with 24 plants being included in each genotype) (18 days after sowing) were sprayed with saflufenacil at three concentrations (25 g ai/ha (one-fold field concentration, 1×), 100 g ai/ha (four-fold field concentration, 4×), and 0 g ai/ha (water, 0×)), oxyfluorfen at three concentrations (180 g ai/ha (one-fold field concentration, 1×), 720 g ai/ha (four-fold field concentration, 4×), and 0 g ai/ha (water, 0×)), and flumioxazin at three concentrations (60 g ai/ha (one-fold field concentration, 1×), 240 g ai/ha (four-fold field concentration, 4×), and 0 g ai/ha (water, 0×) to determine the tolerance of Arabidopsis thaliana to the herbicides. After 7 days of spraying (7 DAT), the damage level of each plant caused by the herbicide was evaluated according to the average of the damage levels (%) of plants (the average of the damage levels (%) of plants=the injured leaf area/the total leaf area×100%), i.e., the grade of pesticide damage: grade 0 means that the growth status of plants is essentially consistent with those sprayed with the blank solvent (water); grade 1 means that the average of the damage levels of plants is less than 10%; grade 2 means that the average of the damage levels of plants is greater than 10%; and grade 3 means that the average of the damage levels of plants is 100%. The plants having a growth status falling within grades 0 and 1 are classified as highly resistant plants; those having a growth status falling within grade 2 are classified as poorly resistant plants; and those having a growth status falling within grade 3 are classified as non-resistant plants.
# [1] = genotype Control vector, 60 g ai/ha
# [2] = genotype Control vector, 240 g ai/ha
# [3] = genotype PPO-AP-01, 240 g ai/ha
compound,measurement,setting,value
"C#CCN1C(=O)COc2cc(F)c(N3C(=O)C4=C(CCCC4)C3=O)cc21 [flumioxazin, 2-[7-fluoro-3,4-dihydro-3-oxo-4-(2-propynyl)-2H-1,4-benzoxazin-6-yl]-4,5,6,7-tetrahydro-1H-isoindole-1,3(2H)-dione]",effective dose distinguishing sensitive plants from plants having an average level of resistance,Arabidopsis thaliana,60 g ai/ha
same,The grade of pesticide damage/plant: 0,"genotype CK, 60 g ai/ha",0 plant
same,The grade of pesticide damage/plant: 1,"genotype CK, 60 g ai/ha",0 plant
same,The grade of pesticide damage/plant: 2,"genotype CK, 60 g ai/ha",0 plant
same,The grade of pesticide damage/plant: 3,"genotype CK, 60 g ai/ha",24 plant
same,The grade of pesticide damage/plant: 0,"genotype CK, 240 g ai/ha",0 plant
same,The grade of pesticide damage/plant: 1,"genotype CK, 240 g ai/ha",0 plant
same,The grade of pesticide damage/plant: 2,"genotype CK, 240 g ai/ha",0 plant
same,The grade of pesticide damage/plant: 3,"genotype CK, 240 g ai/ha",24 plant
same,The grade of pesticide damage/plant: 0,[1],0 plant
same,The grade of pesticide damage/plant: 1,[1],0 plant
same,The grade of pesticide damage/plant: 2,[1],0 plant
same,The grade of pesticide damage/plant: 3,[1],24 plant
same,The grade of pesticide damage/plant: 0,[2],0 plant
same,The grade of pesticide damage/plant: 1,[2],0 plant
same,The grade of pesticide damage/plant: 2,[2],0 plant
same,The grade of pesticide damage/plant: 3,[2],24 plant
same,The grade of pesticide damage/plant: 0,"genotype PPO-AP-01, 60 g ai/ha",0 plant
same,The grade of pesticide damage/plant: 1,"genotype PPO-AP-01, 60 g ai/ha",0 plant
same,The grade of pesticide damage/plant: 2,"genotype PPO-AP-01, 60 g ai/ha",0 plant
same,The grade of pesticide damage/plant: 3,"genotype PPO-AP-01, 60 g ai/ha",24 plant
same,The grade of pesticide damage/plant: 0,[3],0 plant
same,The grade of pesticide damage/plant: 1,[3],0 plant
same,The grade of pesticide damage/plant: 2,[3],0 plant
same,The grade of pesticide damage/plant: 3,[3],24 plant
same,tolerance to the herbicide (in words),"genotype PPO-AP-01, four-fold field concentration",no tolerance
same,tolerance to the herbicide (in words),"genotype PPO-AP-01, one-fold field concentration",no tolerance
same,The grade of pesticide damage/plant: 0,"genotype PPOA-01, 60 g ai/ha",24 plant
same,The grade of pesticide damage/plant: 1,"genotype PPOA-01, 60 g ai/ha",0 plant
same,The grade of pesticide damage/plant: 2,"genotype PPOA-01, 60 g ai/ha",0 plant
same,The grade of pesticide damage/plant: 3,"genotype PPOA-01, 60 g ai/ha",0 plant
same,The grade of pesticide damage/plant: 0,"genotype PPOA-01, 240 g ai/ha",18 plant
same,The grade of pesticide damage/plant: 1,"genotype PPOA-01, 240 g ai/ha",6 plant
same,The grade of pesticide damage/plant: 2,"genotype PPOA-01, 240 g ai/ha",0 plant
same,The grade of pesticide damage/plant: 3,"genotype PPOA-01, 240 g ai/ha",0 plant
same,The grade of pesticide damage/plant: 0,"genotype PPOB-01, 60 g ai/ha",24 plant
same,The grade of pesticide damage/plant: 1,"genotype PPOB-01, 60 g ai/ha",0 plant
same,The grade of pesticide damage/plant: 2,"genotype PPOB-01, 60 g ai/ha",0 plant
same,The grade of pesticide damage/plant: 3,"genotype PPOB-01, 60 g ai/ha",0 plant
same,The grade of pesticide damage/plant: 0,"genotype PPOB-01, 240 g ai/ha",18 plant
same,The grade of pesticide damage/plant: 1,"genotype PPOB-01, 240 g ai/ha",6 plant
same,The grade of pesticide damage/plant: 2,"genotype PPOB-01, 240 g ai/ha",0 plant
same,The grade of pesticide damage/plant: 3,"genotype PPOB-01, 240 g ai/ha",0 plant
same,The grade of pesticide damage/plant: 0,"genotype PPOC-01, 60 g ai/ha",24 plant
same,The grade of pesticide damage/plant: 1,"genotype PPOC-01, 60 g ai/ha",0 plant
same,The grade of pesticide damage/plant: 2,"genotype PPOC-01, 60 g ai/ha",0 plant
same,The grade of pesticide damage/plant: 3,"genotype PPOC-01, 60 g ai/ha",0 plant
same,The grade of pesticide damage/plant: 0,"genotype PPOC-01, 240 g ai/ha",24 plant
same,The grade of pesticide damage/plant: 1,"genotype PPOC-01, 240 g ai/ha",0 plant
same,The grade of pesticide damage/plant: 2,"genotype PPOC-01, 240 g ai/ha",0 plant
same,The grade of pesticide damage/plant: 3,"genotype PPOC-01, 240 g ai/ha",0 plant
same,The grade of pesticide damage/plant: 0,"genotype PPOD-01, 60 g ai/ha",24 plant
same,The grade of pesticide damage/plant: 1,"genotype PPOD-01, 60 g ai/ha",0 plant
same,The grade of pesticide damage/plant: 2,"genotype PPOD-01, 60 g ai/ha",0 plant
same,The grade of pesticide damage/plant: 3,"genotype PPOD-01, 60 g ai/ha",0 plant
same,The grade of pesticide damage/plant: 0,"genotype PPOD-01, 240 g ai/ha",24 plant
same,The grade of pesticide damage/plant: 1,"genotype PPOD-01, 240 g ai/ha",0 plant
same,The grade of pesticide damage/plant: 2,"genotype PPOD-01, 240 g ai/ha",0 plant
same,The grade of pesticide damage/plant: 3,"genotype PPOD-01, 240 g ai/ha",0 plant
same,The grade of pesticide damage/plant: 0,"genotype PPOE-01, 60 g ai/ha",22 plant
same,The grade of pesticide damage/plant: 1,"genotype PPOE-01, 60 g ai/ha",2 plant
same,The grade of pesticide damage/plant: 2,"genotype PPOE-01, 60 g ai/ha",0 plant
same,The grade of pesticide damage/plant: 3,"genotype PPOE-01, 60 g ai/ha",0 plant
same,The grade of pesticide damage/plant: 0,"genotype PPOE-01, 240 g ai/ha",23 plant
same,The grade of pesticide damage/plant: 1,"genotype PPOE-01, 240 g ai/ha",0 plant
same,The grade of pesticide damage/plant: 2,"genotype PPOE-01, 240 g ai/ha",0 plant
same,The grade of pesticide damage/plant: 3,"genotype PPOE-01, 240 g ai/ha",1 plant
same,number of non-resistant plants,"genotype PPOE-01, four-fold field concentration",1 plant
same,tolerance to the herbicide (in words),"genotype PPOE-01, the other plants, four-fold field concentration",high-resistant tolerance
same,The grade of pesticide damage/plant: 0,"genotype PPOF-01, 60 g ai/ha",24 plant
same,The grade of pesticide damage/plant: 1,"genotype PPOF-01, 60 g ai/ha",0 plant
same,The grade of pesticide damage/plant: 2,"genotype PPOF-01, 60 g ai/ha",0 plant
same,The grade of pesticide damage/plant: 3,"genotype PPOF-01, 60 g ai/ha",0 plant
same,The grade of pesticide damage/plant: 0,"genotype PPOF-01, 240 g ai/ha",18 plant
same,The grade of pesticide damage/plant: 1,"genotype PPOF-01, 240 g ai/ha",6 plant
same,The grade of pesticide damage/plant: 2,"genotype PPOF-01, 240 g ai/ha",0 plant
same,The grade of pesticide damage/plant: 3,"genotype PPOF-01, 240 g ai/ha",0 plant
same,tolerance to the herbicide (in words),"genotypes PPOA-01 to PPOD-01 and PPOF-01, four-fold field concentration",high-resistant tolerance
same,tolerance to the herbicide (in words),"genotypes PPOA-01 to PPOF-01, one-fold field concentration",high-resistant tolerance

# From patent US20250275540A1, “USE OF PROTOPORPHYRINOGEN OXIDASE” (BEIJING DABEINONG BIOTECHNOLOGY CO., LTD., priority 2022, published 2025)
